For experiment [1], the target named is T1, 1-deoxy-D-xylulose 5-phosphate reductoisomerase (Mycobacterium tuberculosis) (UniProt P9WNS1).
T1 sequence (whole entry): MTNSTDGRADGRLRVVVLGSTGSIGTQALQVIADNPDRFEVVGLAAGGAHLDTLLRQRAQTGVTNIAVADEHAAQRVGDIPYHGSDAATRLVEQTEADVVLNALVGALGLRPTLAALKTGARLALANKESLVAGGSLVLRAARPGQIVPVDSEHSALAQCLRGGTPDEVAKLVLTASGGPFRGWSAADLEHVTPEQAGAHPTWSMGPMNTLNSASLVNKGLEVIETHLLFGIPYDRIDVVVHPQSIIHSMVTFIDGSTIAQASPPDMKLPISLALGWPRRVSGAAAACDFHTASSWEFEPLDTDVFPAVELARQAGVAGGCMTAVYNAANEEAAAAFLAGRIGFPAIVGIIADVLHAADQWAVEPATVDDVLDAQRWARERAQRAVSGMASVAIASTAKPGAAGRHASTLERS
Kind of experiment: Inhibition of recombinant Mycobacterium tuberculosis Dxr expressed in Escherichia coli BL21 CodonPlus (DE3)-RIL cells using DOXP as substrate assessed as NADPH oxidation at 100 uM by spectrophotometric analysis.

In experiment [2] the test system is Plasmodium falciparum. Kind of experiment: Schizontocidal activity against Plasmodium falciparum K1 infected in human RBC after 72 hrs by Malstat reagent-based spectrophotometric analysis. The class given is functional. Particulars: K1, 72 h.
Experiment [3] has as its target T2, 1-deoxy-D-xylulose 5-phosphate reductoisomerase (Escherichia coli) (UniProt W8T2T2).
T2 sequence (whole entry): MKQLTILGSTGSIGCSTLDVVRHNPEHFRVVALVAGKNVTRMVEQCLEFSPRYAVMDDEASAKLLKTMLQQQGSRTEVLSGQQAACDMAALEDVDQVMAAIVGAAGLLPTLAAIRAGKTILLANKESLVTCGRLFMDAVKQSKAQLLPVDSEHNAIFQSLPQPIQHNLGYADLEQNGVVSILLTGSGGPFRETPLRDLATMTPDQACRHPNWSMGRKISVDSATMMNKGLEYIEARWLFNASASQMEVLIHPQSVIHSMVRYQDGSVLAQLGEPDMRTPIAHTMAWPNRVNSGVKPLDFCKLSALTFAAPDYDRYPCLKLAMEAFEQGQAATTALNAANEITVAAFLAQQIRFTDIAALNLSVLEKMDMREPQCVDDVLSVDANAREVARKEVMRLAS
Kind of experiment: Inhibition of recombinant Escherichia coli Dxr expressed in Escherichia coli BL21 CodonPlus (DE3)-RIL cells using DOXP as substrate assessed as NADPH oxidation at 100 uM preincubated for 5 mins with NADPH followed by substrate addition by spectrophotometric analysis.

Experiment [4] concerns Escherichia coli. Kind of experiment: Antibacterial activity against Escherichia coli ATCC 8739 by two-fold broth microdilution method. Format: functional.
The test system of experiment [5] is Mycolicibacterium smegmatis. Kind of experiment: Antibacterial activity against Mycobacterium smegmatis ATCC 607 after 24 to 48 hrs by two-fold broth microdilution method. The class given is functional. A general note: Broth dilution looks for growth in wells or tubes with falling amounts of substance.
For experiment [6], the system named is Escherichia coli. Kind of experiment: Antibacterial activity against Escherichia coli K-12 by two-fold broth microdilution method. Format: functional.
Experiment [7] has as its system Escherichia coli. In words: Antibacterial activity against Escherichia coli ATCC 25922 by two-fold broth microdilution method. Format: functional.
In experiment [8] the test system is Mycolicibacterium smegmatis. In words: Antibacterial activity against Mycobacterium smegmatis ATCC 700084 after 24 to 48 hrs by two-fold broth microdilution method. The class given is functional.
The nature of experiment [9]: Inhibition of recombinant Plasmodium falciparum Dxr expressed in Escherichia coli C43(DE3) using DOXP as substrate assessed as NADPH oxidation by spectrophotometric analysis.
Experiment [10] has as its target T3, 1-deoxy-D-xylulose 5-phosphate reductoisomerase (Escherichia coli, UniProt W8T2T2).
T3 sequence (W8T2T2 whole entry): T2 sequence (whole entry)
Kind of experiment: Inhibition of recombinant Escherichia coli Dxr expressed in Escherichia coli BL21 CodonPlus (DE3)-RIL cells using DOXP as substrate assessed as NADPH oxidation preincubated for 5 mins with NADPH followed by substrate addition by spectrophotometric analysis.

The target of experiment [11] is T4, 1-deoxy-D-xylulose 5-phosphate reductoisomerase (Mycobacterium tuberculosis, UniProt P9WNS1).
T4 sequence (P9WNS1 whole entry): T1 sequence (whole entry)
In words: Inhibition of recombinant Mycobacterium tuberculosis Dxr expressed in Escherichia coli BL21 CodonPlus (DE3)-RIL cells using DOXP as substrate assessed as NADPH oxidation by spectrophotometric analysis.

Experiment [12] has as its system Plasmodium falciparum. Kind of experiment: Inhibition of recombinant Plasmodium falciparum Dxr expressed in Escherichia coli C43(DE3) using DOXP as substrate assessed as NADPH oxidation at 100 uM by spectrophotometric analysis.

Values after ≈ are worked out from the molar mass of the structure shown. Active and inactive are the calls of the source. No cut-off for these calls is given here. Some results are limits rather than exact numbers.

As to `CN(O)C(=O)CC(CP(=O)(O)O)c1ccc(Cl)cc1` (centres undefined), the inhibition entry in experiment [1] and in experiment [3] was “inactive” each time. Further, the MIC50 (as a rule, the lowest concentration that inhibits either 50% of growth or 50% of the strains tested, depending on the study) against Plasmodium falciparum [2] was > 64 µM; against Escherichia coli [4], > 250 µM; in experiment [5], > 250 µM; in the experiment on Escherichia coli [6] it was > 250 µM; in the experiment on Escherichia coli [7] it was > 250 µM; in [8] it was > 250 µM.

As for `CN(O)C(=O)CC(CCCCc1ccccc1)CP(=O)(O)O` (centres undefined), the MIC50 with Plasmodium falciparum [2] was < 0.25 µM; in the experiment with Escherichia coli [4], > 250 µM; in experiment [5], > 250 µM; in the experiment on Escherichia coli [6], > 250 µM; against Escherichia coli [7], > 250 µM; in [8], > 250 µM. Besides, the results for the IC50 in experiment [9], in experiment [10] and in experiment [11] were 69 nM, 273000 nM and 6670 nM, respectively.

On to `CN(O)C(=O)CC(Cc1ccccc1)CP(=O)(O)O` (centres undefined), for which the MIC50 in the experiment with Plasmodium falciparum [2] is ≥ 56.8 µM. Also, the inhibition entry (in experiment [3]; with Plasmodium falciparum [12]) was “Active” in each case.

Consider `CN(O)C(=O)CC(CCc1ccccc1)CP(=O)(O)O` (centres undefined), for which the MIC50 was 35.4 µM (≈ 10.7 µg/mL) in the experiment with Plasmodium falciparum [2]; > 250 µM in the experiment on Escherichia coli [4]; > 250 µM in [5]; > 250 µM against Escherichia coli [6]; > 250 µM with Escherichia coli [7]; > 250 µM in [8]. Besides, the 50% inhibitory concentration (IC50) (commonly the point on the concentration scale where inhibition reaches its midpoint) in experiment [9] was 1360 nM; in [11] it was 31400 nM.

Regarding `CN(O)C(=O)CCCP(=O)(O)O`, the MIC50 with Plasmodium falciparum [2] is 0.26 µM (≈ 0.0513 µg/mL); with Escherichia coli [4] it was 31.2 µM (≈ 6.16 µg/mL); in [5], > 250 µM; in the experiment with Escherichia coli [6], 31.2 µM (≈ 6.16 µg/mL); against Escherichia coli [7] it was 15.6 µM (≈ 3.08 µg/mL); in [8], > 250 µM. Further, the 50% inhibitory concentration (IC50) worked out at 1150 nM in experiment [10] and 159 nM in experiment [11].

Take `CN(O)C(=O)CC(CP(=O)(O)O)c1ccccc1` (centres undefined): the inhibition result in [1] and in [3] was “inactive” each time. In addition, the MIC50 in the experiment on Plasmodium falciparum [2] is > 64 µM; against Escherichia coli [4] it was > 250 µM; in experiment [5] it was > 250 µM; with Escherichia coli [6] it was > 250 µM; against Escherichia coli [7], > 250 µM; in experiment [8] it was > 250 µM. For the same molecule, the IC50 in experiment [9] came out at 3300 nM.

In turn, `CC(CC(=O)N(C)O)CP(=O)(O)O` (centres undefined) registered an MIC50 against Plasmodium falciparum [2] of 0.74 µM (≈ 0.156 µg/mL). In addition, the IC50 in experiment [10] worked out at 7130 nM; in experiment [11], 205 nM.

For the molecule `CC(=O)N(O)CCCP(=O)(O)O` [FR-900098], the MIC50 was 7.8 µM (≈ 1.54 µg/mL) in the experiment on Escherichia coli [4]; > 250 µM in [5]; 15.6 µM (≈ 3.08 µg/mL) in the experiment with Escherichia coli [6]; 62.5 µM (≈ 12.3 µg/mL) in the experiment with Escherichia coli [7]; > 250 µM in experiment [8].

For the molecule `CN(O)C(=O)CC(CCCc1ccccc1)CP(=O)(O)O` (centres undefined), the MIC50 in the experiment with Plasmodium falciparum [2] was 0.43 µM (≈ 0.136 µg/mL); with Escherichia coli [4], > 250 µM; in [5] it was > 250 µM; against Escherichia coli [6], > 250 µM; in the experiment with Escherichia coli [7], > 250 µM; in experiment [8], > 250 µM. The half-inhibitory concentration (IC50) in experiment [9] is 117 nM; in [10], 10300 nM; in experiment [11], 843 nM.

`Cc1ccc(C(CC(=O)N(C)O)CP(=O)(O)O)cc1` (centres undefined): the inhibition entry in experiment [1] and in experiment [3] was “inactive” each time. Moreover, the MIC50 is > 64 µM against Plasmodium falciparum [2]; > 250 µM in the experiment on Escherichia coli [4]; > 250 µM in experiment [5]; > 250 µM in the experiment on Escherichia coli [6]; > 250 µM with Escherichia coli [7]; > 250 µM in experiment [8]. In addition, in experiment [9], the IC50 amounted to 9300 nM.

On to `COc1ccc(C(CC(=O)N(C)O)CP(=O)(O)O)cc1` (centres undefined), for which the inhibition result in experiment [1] and in experiment [3] was “inactive” in each case. Further, the MIC50 is > 64 µM against Plasmodium falciparum [2]; > 250 µM in the experiment on Escherichia coli [4]; > 250 µM in experiment [5]; > 250 µM in the experiment on Escherichia coli [6]; > 250 µM in the experiment on Escherichia coli [7]; > 250 µM in experiment [8]. Further, the IC50 in [9] is 18800 nM.

For the molecule `CN(O)C(=O)CC(CP(=O)(O)O)c1ccc(Cl)c(Cl)c1` (centres undefined), the inhibition entry in experiment [1] and in experiment [3] was “inactive” in each case. For the same molecule, the MIC50 in the experiment on Plasmodium falciparum [2] was > 64 µM; against Escherichia coli [4], > 250 µM; in experiment [5], > 250 µM; in the experiment with Escherichia coli [6], > 250 µM; in the experiment on Escherichia coli [7], > 250 µM; in [8], > 250 µM.

Regarding `O=CN(O)CCCP(=O)(O)O` [FOSMIDOMYCIN], the IC50 in [9] was found to be 36 nM. Moreover, the MIC50 in the experiment on Escherichia coli [4] is 0.98 µM (≈ 0.179 µg/mL); in [5] it was > 250 µM; in the experiment with Escherichia coli [6], 7.8 µM (≈ 1.43 µg/mL); in the experiment with Escherichia coli [7], 250 µM (≈ 45.8 µg/mL); in experiment [8], > 250 µM.

The values above are taken from ChEMBL document CHEMBL3421566 (J Med Chem, 2015).
